Test results from patent publication US20230083717A1, “METHODS AND COMPOSITIONS FOR PROMOTING ADIPOCYTE BEIGING” (Flagship Pioneering Innovations VI, LLC, priority 2021, published 2023).

System: UCP1
Experiment: in vivo assay of induction of beige adipocytes in visceral and subcutaneous fat depots
Details: 1 mg/kg intraperitoneal, C57Bl6/J mice, vs control mice
Experimental: An in vivo assay of induction of beige adipocytes in visceral and subcutaneous fat depots was established using the β3-receptor agonist CL316243. 8-week old male C57Bl6/J mice were dosed with 1 mg/kg CL316243 with intraperitoneal injections, either every day for 1 week or every other day for two weeks. The vehicle was used as a negative control. Following the dosage administration, the mice were sacrificed, and epididymal (visceral) and inguinal (subcutaneous) fat was excised. The expression of UCP1 was assessed in the excised epididymal (visceral) and inguinal (subcutaneous) fat, by western blot and immunohistochemistry. […] The adipose tissue cells in epididymal (visceral) and inguinal (subcutaneous) fat from CL 316234 treated mice were also smaller compared to the cells from control mice (FIG. 3A).

C[C@H](Cc1ccc2c(c1)OC(C(=O)O)(C(=O)O)O2)NC[C@H](O)c1cccc(Cl)c1 [CL 316234]
expression of UCP1 by immunohistochemistry in epididymal (visceral) and inguinal (subcutaneous) fat: increased expression of UCP1 | expression of UCP1 by western blot in inguinal and epididymal fat: increased expression of UCP1 | size of adipose tissue cells in epididymal and inguinal fat: smaller
